Assay results taken from patent publication US9901592B2 (priority 2008, dated 2018).
Values after ≈ are worked out from the molar mass of the structure shown. Values joined by “and” are separate entries in the source; they are usually repeats but may differ in a detail not shown here. Equal entries are not always repeated. Where two headings read alike, the source gives them in different places.

How the values were obtained:
[1] = tested on: U. urealyticum; assay: MIC testing in 10B broth (colour change); type: cell-based; conditions: U. urealyticum (10 isolates)
[2] = tested on: streptococci; assay: organism not typed; type: cell-based
[3] = tested on: M. fermentans; type: cell-based; conditions: M. fermentans (15 isolates)
[4] = tested on: M. hominis; type: cell-based; conditions: M. hominis (13 isolates)
[5] = tested on: N. meningitidis; assay: MIC, CLSI broth microdilution, invasive isolates; type: cell-based; conditions: for % Res. / % Susc.: CLSI (M100-S19, 2009) criteria; for MIC / MIC50 / MIC90: Neisseria meningitidis
Protocol: Example. […] Colonization of the nasopharynx (NP) by NM can lead to invasive meningococcal disease. Chemoprophylaxis is used to eradicate NP colonization and prevent transmission to nonimmune contacts. […] 62 isolates (91.9% blood culture) of NM were collected from 29 medical centers in North and South America and Europe (1997-2008). […] Serological identification was performed for serogroups (SGs) B, C, Y and W135.

[6] = tested on: pneumococci; assay: microbe, parasite or virus in culture; type: cell-based, S. pneumoniae; conditions: for MIC: read-out: MIC range, pneumococci, L4 mutations (27)
[7] = tested on: M. genitalium; type: cell-based; conditions: M. genitalium (5 isolates)
[8] = tested on: group A streptococci; assay: microbe, parasite or virus in culture; type: cell-based, S. pyogenes
[9] = tested on: M. pneumoniae; assay: microbe, parasite or virus in culture; type: cell-based
[10] = tested on: U. parvum; assay: MIC testing in 10B broth (colour change); type: cell-based, Ureaplasma parvum; conditions: U. parvum (10 isolates)
[11] = tested on: Mycobacterium bovis BCG; type: cell-based; conditions: growth-arrested cells
[12] = tested on: S. pneumoniae; assay: microbe, parasite or virus in culture; type: cell-based
[13] = tested on: S. aureus; type: cell-based
[14] = tested on: S. pneumoniae; type: cell-based
[15] = Streptococcus pneumoniae, pneumococci, L4 mutations (27)

C[C@H]1COc2c(N3CCN(C)CC3)c(F)cc3c(=O)c(C(=O)O)cn1c23 [Levofloxacin, levofloxacin]
MIC Range [1]: 0.5 to 2 µg/mL
MIC50 ([1]; Ureaplasma urealyticum): 0.5 µg/mL (≈ 1.38 µM)
MIC90 ([1]; Ureaplasma urealyticum): 1 µg/mL (≈ 2.77 µM)
MIC50 [2]: 1 µg/mL (≈ 2.77 µM)
MIC90 [2]: 1 µg/mL (≈ 2.77 µM)
MIC 90% [2]: 2 µg/mL (≈ 5.53 µM)
MIC Range [3]: ≦0.008-0.25 μg/mL
MIC50 ([3]; Mycoplasmopsis fermentans): 0.031 µg/mL (≈ 0.0858 µM)
MIC90 ([3]; Mycoplasmopsis fermentans): 0.125 µg/mL (≈ 0.346 µM)
MIC Range [4]: 0.125 to 0.5 µg/mL
MIC50 ([4]; Metamycoplasma hominis, read-out: MIC50): 0.25 µg/mL (≈ 0.692 µM)
MIC90 ([4]; Metamycoplasma hominis, read-out: MIC90): 0.5 µg/mL (≈ 1.38 µM)
% Res. [5]: 0.0%
% Susc. [5]: 100.0%
MIC ([5]; 62 N. meningitidis isolates): 0.008 to 0.015 µg/mL (≈ 0.0221 to 0.0415 µM)
MIC50 ([5]; 62 N. meningitidis isolates): ≤ 0.008 µg/mL
MIC90 ([5]; 62 N. meningitidis isolates): ≤ 0.008 µg/mL
MIC50 [6, 15]: 1 µg/mL (≈ 2.77 µM)
MIC90 [6, 15]: 2 µg/mL (≈ 5.53 µM)
MIC ([6]; Streptococcus pneumoniae): 0.5 to 16 µg/mL (≈ 1.38 to 44.3 µM)
MIC Range [7]: 0.125 to 1 µg/mL
MIC90 [8]: 0.5 µg/mL (≈ 1.38 µM)
MIC Range [8]: 0.5 to 1 µg/mL and 0.5 µg/mL
MIC50 ([8]; Streptococcus pyogenes): 0.5 µg/mL (≈ 1.38 µM)
MIC90 ([8]; Streptococcus pyogenes): 1 µg/mL (≈ 2.77 µM)
MIC ([8]; Streptococcus pyogenes, read-out: MIC Range): 0.5 to 2 µg/mL (≈ 1.38 to 5.53 µM)
MIC Range [9]: 0.125 to 1 µg/mL
MIC50 ([9]; Mycoplasmoides pneumoniae): 0.5 µg/mL (≈ 1.38 µM)
MIC90 ([9]; Mycoplasmoides pneumoniae): 0.5 µg/mL (≈ 1.38 µM)
MIC Range [10]: 0.125 to 2 µg/mL
MIC50 ([10]; Ureaplasma parvum, read-out: MIC50): 0.5 µg/mL (≈ 1.38 µM)
MIC90 ([10]; Ureaplasma parvum, read-out: MIC90): 2 µg/mL (≈ 5.53 µM)

Amoxicillin Clavulanate
MIC50 ([6]; pneumococci, L4 mutations (27)): 4 µg/mL
MIC90 ([6]; pneumococci, L4 mutations (27)): 8 µg/mL

COc1c(N2C[C@@H]3CCCN[C@@H]3C2)c(F)cc2c(=O)c(C(=O)O)cn(C3CC3)c12 [moxifloxacin]
activity during growth arrest relative to gatifloxacin [11]: 2 fold
MIC50 [6, 15]: 0.25 µg/mL (≈ 0.623 µM)
MIC90 [6, 15]: 0.5 µg/mL (≈ 1.25 µM)
MIC ([6]; Streptococcus pneumoniae): 0.125 to 4 µg/mL (≈ 0.311 to 9.96 µM)
MIC50 ([8]; Streptococcus pyogenes): 0.25 µg/mL (≈ 0.623 µM)
MIC90 ([8]; Streptococcus pyogenes): 0.25 µg/mL (≈ 0.623 µM)

trimethoprim/sulfamethoxazole [TMP/SMX]
nonsusceptibility [12]: 100.0%
MIC 50% ([5]; 62 N. meningitidis isolates): 0.5 µg/mL
MIC 90% ([5]; 62 N. meningitidis isolates): 2 µg/mL
MIC Range ([5]; 62 N. meningitidis isolates): ≦0.06-4 μg/ml
% Res. [5]: 59.7%
% Susc. [5]: 37.1%

CC[C@H]1OC(=O)[C@H](C)[C@@H](OC2CC(C)(OC)C(O)C(C)O2)[C@H](C)[C@@H](OC2OC(C)CC(N(C)C)C2O)[C@@](C)(OC)C[C@@H](C)C(=O)[C@H](C)[C@H]2N(CCCCn3cc(-c4cccnc4)nn3)C(=O)O[C@]12C (some centres unmarked) [Entry 20b]
MIC [13]: 8 µg/mL (≈ 8.22 µM)
MIC [14]: ≦0.0625 μg/mL

amoxicillin/clavulanate
nonsusceptibility [12]: 88.9%
MIC Range [6]: 0.015 to 16 µg/mL
MIC50 ([6]; pneumococci, L4 mutations (27)): 4 µg/mL
MIC90 ([6]; pneumococci, L4 mutations (27)): 8 µg/mL
MIC range ([6]; pneumococci, L4 mutations (27)): 0.125 to 8 µg/mL
MIC50 [8]: 0.03 µg/mL and <0.015 µg/mL and 0.015 µg/mL
MIC90 [8]: 0.03 µg/mL and 0.06 µg/mL
MIC Range [8]: 0.015 to 0.03 µg/mL and 0.03 µg/mL

CO/N=C(\C(=O)N[C@@H]1C(=O)N2C(C(=O)O)=C(CSc3nc(=O)c(=O)[nH]n3C)CS[C@H]12)c1csc(N)n1 [CRO, ceftriaxone]
nonsusceptibility [12]: 33.3%
% Susc. [5]: 100.0%
MIC ([5]; 62 N. meningitidis isolates): ≤ 0.015 µg/mL
MIC50 ([5]; 62 N. meningitidis isolates): ≤ 0.015 µg/mL
MIC90 ([5]; 62 N. meningitidis isolates): ≤ 0.015 µg/mL

CC[C@H]1OC(=O)[C@H](C)[C@@H](OC2CC(C)(OC)C(O)C(C)O2)[C@H](C)[C@@H](OC2OC(C)CC(N(C)C)C2O)[C@@](C)(OC)C[C@@H](C)C(=O)[C@H](C)[C@H]2N(CCCCn3cc(Cn4nnc5ccccc54)nn3)C(=O)O[C@]12C (some centres unmarked) [Entry 20e]
MIC [13]: 8 µg/mL (≈ 7.79 µM)
MIC [14]: ≦0.0625 μg/mL

CC[C@H]1OC(=O)[C@H](C)[C@@H](OC2CC(C)(OC)C(O)C(C)O2)[C@H](C)[C@@H](OC2OC(C)CC(N(C)C)C2O)[C@@](C)(OC)C[C@@H](C)C(=O)[C@H](C)[C@H]2N(CCCCn3cc(COc4c(Cl)cccc4Cl)nn3)C(=O)O[C@]12C (some centres unmarked) [Entry 20d]
MIC [13]: 8 µg/mL (≈ 7.47 µM)
MIC [14]: ≦0.0625 μg/mL

CC1(C)S[C@@H]2[C@H](NC(=O)Cc3ccccc3)C(=O)N2[C@H]1C(=O)O [Pen G]
MIC50 [6]: 1 µg/mL (≈ 2.99 µM)
MIC90 [6]: 2 µg/mL and 4 µg/mL
MIC range [6]: 0.015 to 8 µg/mL
MIC50 [8]: 0.015 µg/mL (≈ 0.0449 µM)
MIC90 [8]: 0.015 µg/mL and 0.03 µg/mL
MIC Range [8]: <0.008 to 0.125 µg/mL and 0.008 to 0.015 µg/mL and <0.008 to 0.015 µg/mL and 0.015 µg/mL

COc1c(N2C[C@@H]3CCCN[C@@H]3C2)c(F)cc2c(=O)c(C(=O)O)cn(C3CC3)c12 [Moxi]
MIC50 [6]: 0.25 µg/mL (≈ 0.623 µM)
MIC Range [6]: 0.125 to 4 µg/mL
MIC range [6]: 0.125 to 8 µg/mL
MIC50 [8]: 0.25 µg/mL (≈ 0.623 µM)
MIC90 [8]: 0.25 µg/mL (≈ 0.623 µM)
MIC Range [8]: 0.125 to 0.25 µg/mL and 0.125 to 0.5 µg/mL
